Where two headings read alike, the source gives them in different places. Residues, ends and D or L forms follow the SMILES beside them.
What was measured:
S. aureus ATCC 25923 = experiment: MIC and MBC against laboratory strain S. aureus ATCC 25923; type: cell-based, Staphylococcus aureus; conditions: for MBC: 10 μL from MIC put into Mueller-Hinton agar medium, 24 h; for MIC: 37°C, 18 to 20 h
Procedure: (§1) MIC was measured according to Luna et al. ([25]) as described previously. Briefly, 100 μL of RPMI 1640 medium containing drugs at various concentrations was cultured with 100 μL of bacteria at 1 × 10^6 CFU/mL in 96-well plates at 37°C for 18 to 20 h. Wells containing 100 μL of bacteria at 1 × 10^6 CFU/mL and 100 μL medium were used as positive controls. Wells containing 100 μL drug and 100 μL medium were used as drug-negative controls, and wells containing 200 μL medium were used as negative controls.
(§2) The MBC, in which a combination of 10 μL from MIC was put into Mueller-Hinton agar medium and incubated for 24 h, was the first one in which […].

S. aureus USA200 [1] = experiment: Checkerboard combination with ciprofloxacin; type: cell-based; conditions: in combination with ciprofloxacin
ExPEC PCN033 = experiment: MIC and MBC against MDR bacteria; type: cell-based, Escherichia coli; conditions: for MBC: Mueller-Hinton agar, 24 h; for MIC: RPMI 1640, 37°C, 18 to 20 h
Procedure: as §1, §2

ExPEC RS218 = experiment: MIC and MBC against MDR bacteria; type: cell-based, Escherichia coli; conditions: for MBC: Mueller-Hinton agar, 24 h; for MIC: RPMI 1640, 37°C, 18 to 20 h
Procedure: as §1, §2

E. coli ATCC 25922 = experiment: MIC and MBC against laboratory strain E. coli ATCC 25922; type: cell-based, Escherichia coli; conditions: for MBC: 10 μL from MIC put into Mueller-Hinton agar medium, 24 h; for MIC: 37°C, 18 to 20 h
Procedure: as §1, §2

S. aureus 1802043 = experiment: MIC and MBC against MDR bacteria; type: cell-based; conditions: for MBC: Mueller-Hinton agar, 24 h; for MIC: RPMI 1640, 37°C, 18 to 20 h
Procedure: as §1, §2

S. aureus USA300 = experiment: MIC and MBC against MDR bacteria; type: cell-based; conditions: for MBC: Mueller-Hinton agar, 24 h; for MIC: RPMI 1640, 37°C, 18 to 20 h
Procedure: as §1, §2

Bacillus subtilis NCD-2 = experiment: MIC and MBC against MDR bacteria; type: cell-based; conditions: for MBC: Mueller-Hinton agar, 24 h; for MIC: RPMI 1640, 37°C, 18 to 20 h
Procedure: as §1, §2

S. aureus USA200 [2] = experiment: MIC and MBC against MDR bacteria; type: cell-based; conditions: for MBC: Mueller-Hinton agar, 24 h
Procedure: as §1, §2

S. aureus ATCC 43300 = experiment: MIC and MBC against MDR bacteria; type: cell-based; conditions: for MBC: Mueller-Hinton agar, 24 h; for MIC: RPMI 1640, 37°C, 18 to 20 h
Procedure: as §1, §2

Streptococcus SC19 = experiment: MIC and MBC against MDR bacteria; type: cell-based; conditions: for MBC: Mueller-Hinton agar, 24 h; for MIC: RPMI 1640, 37°C, 18 to 20 h
Procedure: as §1, §2

S. aureus USA200 [3] = experiment: Mouse tissue load experiment; type: in vivo; conditions: BALB/c mice, five per group, 20 mg/kg i.p., tissues (liver, spleen, lung, kidney) harvested 12 h later, CFU
Procedure: For the mouse tissue load experiment, the bacteria were manipulated as described previously. Twenty female BALB/c mice (18 ± 2 g each) were divided randomly into four groups of five mice each. The animals in the four groups were injected intraperitoneally with 20 mg/kg Tsap-1 AMP, 20 mg/kg ciprofloxacin, 10 mg/kg Tsap-1, and 10 mg/kg ciprofloxacin or an equal amount of PBS. Twelve hours later, the mice were anesthetized with ether and perfused with PBS, and their livers, spleens, lungs, and kidneys were harvested. The tissues were then homogenized using a tissue grinder. Then, 10× serial dilutions of the homogenates were prepared and plated onto LB plates, and the CFUs were counted.

S. aureus USA200 [4] = experiment: S. aureus-infected mouse model, survival; type: in vivo; conditions: BALB/c mice, n = 10, 1 × 10^7 bacteria i.p.; 20 mg/kg i.p. 6 h after infection; survival after 7 days
Procedure: To determine the drug protection rate fraction, S. aureus USA200 that had been cultured overnight was cultured in LB broth to an OD600 of 0.5, washed three times, and resuspended in PBS. Forty female BALB/c mice (18 ± 2 g each) were divided randomly into four groups. All four groups (n = 10) of mice were injected intraperitoneally with 1 × 10^7 bacteria. Six hours after infection, the animals in the four groups received 20 mg/kg Tsap-1, 20 mg/kg ciprofloxacin, 10 mg/kg Tsap-1, and 10 mg/kg ciprofloxacin or an equal amount of PBS by intraperitoneal injection. The survival rate of the mice was recorded after 7 days.

Sheep red blood cells = experiment: Hemolytic activity; type: cell-based; conditions: 4 μg/mL; 10% SRBCs, 37°C, 6 h, absorbance 540 nm, triplicate
Procedure: Sheep red blood cells (SRBCs) were used to detect hemolytic activity according to a previous method. Briefly, fresh SRBCs were washed with PBS, and a suspension of 10% SRBCs was mixed with solutions of Tsap or melittin at various concentrations. After incubation at 37°C for 6 h, the cells were removed by centrifugation at 800 × g for 10 min, and the absorbance of the supernatant at 540 nm was measured. Culture supernatant from cells that had been stimulated with 1% Triton X-100 was used as a positive control, and culture supernatant from cells that had been incubated with PBS was used as a negative control. Each measurement was taken in triplicate.

[5] = RPMI 1640 medium, 1 × 10^6 CFU/mL, 96-well plates
[6] = RPMI supplemented with Glycine (0.5 mM)
[7] = RPMI supplemented with L-Arginine (0.5 mM)
[8] = RPMI supplemented with L-Histidine (0.5 mM)
[9] = RPMI supplemented with L-Tryptophan (0.125 mM)
[10] = RPMI supplemented with Leucine (1 mM)
[11] = RPMI supplemented with nonessential amino acid solution
[12] = S. aureus USA200, RPMI 1640, 37°C, 18 to 20 h

Molecule	MBC (S. aureus ATCC 25923) [µg/mL]	MIC (S. aureus ATCC 25923; [5]) [µg/mL]	MIC (S. aureus ATCC 25923; [6]) [µg/mL]	MIC (S. aureus ATCC 25923; [7]) [µg/mL]	MIC (S. aureus ATCC 25923; [8]) [µg/mL]	MIC (S. aureus ATCC 25923; [9]) [µg/mL]	MIC (S. aureus ATCC 25923; [10]) [µg/mL]	MIC (S. aureus ATCC 25923; [11]) [µg/mL]	fractional inhibitory concentration index (FICI) (S. aureus USA200 [1])	MBC (ExPEC PCN033) [µg/mL]	MIC (ExPEC PCN033) [µg/mL]	MBC (ExPEC RS218) [µg/mL]	MIC (ExPEC RS218) [µg/mL]	MBC (E. coli ATCC 25922) [µg/mL]	MIC (E. coli ATCC 25922; [5]) [µg/mL]	MIC (E. coli ATCC 25922; [6]) [µg/mL]	MIC (E. coli ATCC 25922; [7]) [µg/mL]	MIC (E. coli ATCC 25922; [8]) [µg/mL]	MIC (E. coli ATCC 25922; [9]) [µg/mL]	MIC (E. coli ATCC 25922; [10]) [µg/mL]	further results
CC[C@H](C)[C@H](NC(=O)[C@H](CCSC)NC(=O)[C@H](CCCCN)NC(=O)[C@H](CCCCN)NC(=O)[C@H](CC(C)C)NC(=O)[C@H](CCCCN)NC(=O)[C@H](CCCCN)NC(=O)[C@@H](N)Cc1c[nH]c2ccccc12)C(=O)N[C@@H](CCCCN)C(=O)N[C@@H](CCCCN)C(=O)O [Tsap1] (H-WKKLKKMIKK-OH)	4	16	16	16	16	16	16	16	0.5	32	64	32	64	4	32	16	16	32	32	32	MIC (E. coli ATCC 25922; [11]): 16 µg/mL; MBC (S. aureus 1802043): 2 µg/mL; MIC (S. aureus 1802043): 16 µg/mL; MBC (S. aureus USA300): 2 µg/mL; MIC (S. aureus USA300): 16 µg/mL; MBC (Bacillus subtilis NCD-2): 4 µg/mL; MIC (Bacillus subtilis NCD-2): 16 µg/mL; MBC (S. aureus USA200 [2]; S. aureus USA200): 8 µg/mL; MIC (S. aureus USA200 [2]; [12]): 64 µg/mL; MBC (S. aureus ATCC 43300): 4 µg/mL; MIC (S. aureus ATCC 43300): 16 µg/mL; MBC (Streptococcus SC19): 4 µg/mL; MIC (Streptococcus SC19): 16 µg/mL
CC[C@H](C)[C@H](NC(=O)[C@H](CCSC)NC(=O)[C@H](CCCCN)NC(=O)[C@H](CCCCN)NC(=O)[C@H](CC(C)C)NC(=O)[C@H](C)NC(=O)[C@H](CCCCN)NC(=O)[C@@H](N)Cc1c[nH]c2ccccc12)C(=O)N[C@@H](CCSC)C(=O)N[C@@H](CCCCN)C(=O)N[C@H](C(=O)O)[C@@H](C)O [Tsap2] (H-WKALKKMIMKT-OH)	16	64	64	16	64	64	64	64	1.125	64	256	64	256	32	128	64	64	128	128	128	MIC (E. coli ATCC 25922; [11]): 64 µg/mL; MBC (S. aureus 1802043): 8 µg/mL; MIC (S. aureus 1802043): 16 µg/mL; MBC (S. aureus USA300): 8 µg/mL; MIC (S. aureus USA300): 16 µg/mL; MBC (Bacillus subtilis NCD-2): 8 µg/mL; MIC (Bacillus subtilis NCD-2): 16 µg/mL; MBC (S. aureus USA200 [2]; S. aureus USA200): 64 µg/mL; MIC (S. aureus USA200 [2]; [12]): 512 µg/mL; MBC (S. aureus ATCC 43300): 8 µg/mL; MIC (S. aureus ATCC 43300): 16 µg/mL; MBC (Streptococcus SC19): 8 µg/mL; MIC (Streptococcus SC19): 16 µg/mL
CC[C@H](C)[C@H](NC(=O)[C@H](CCCCN)NC(=O)[C@H](CCSC)NC(=O)[C@@H](NC(=O)[C@H](CCSC)NC(=O)[C@H](CCCCN)NC(=O)[C@H](CCCCN)NC(=O)[C@H](CC(C)C)NC(=O)[C@H](C)NC(=O)[C@H](CCCCN)NC(=O)[C@@H](N)Cc1c[nH]c2ccccc12)[C@@H](C)CC)C(=O)O [Tsap3] (H-WKALKKMIMKI-OH)	8	16	16	16	16	16	16	16	1.25	32	64	32	64	4	32	16	16	32	32	32	MIC (E. coli ATCC 25922; [11]): 16 µg/mL; MBC (S. aureus 1802043): 2 µg/mL; MIC (S. aureus 1802043): 16 µg/mL; MBC (S. aureus USA300): 2 µg/mL; MIC (S. aureus USA300): 16 µg/mL; MBC (Bacillus subtilis NCD-2): 4 µg/mL; MIC (Bacillus subtilis NCD-2): 16 µg/mL; MBC (S. aureus USA200 [2]; S. aureus USA200): 16 µg/mL; MIC (S. aureus USA200 [2]; [12]): 64 µg/mL; MBC (S. aureus ATCC 43300): 4 µg/mL; MIC (S. aureus ATCC 43300): 16 µg/mL; MBC (Streptococcus SC19): 4 µg/mL; MIC (Streptococcus SC19): 16 µg/mL
O=C(O)c1cn(C2CC2)c2cc(N3CCNCC3)c(F)cc2c1=O [ciprofloxacin]																					reduction of bacterial loads in all tissues compared with untreated group (S. aureus USA200 [3]): about 32 times; protection (S. aureus USA200 [4]): 60%; MIC (S. aureus USA200 [2]; Staphylococcus aureus, S. aureus USA200, stated in text, read-out: MIC): 16 µg/mL
melittin																					hemolysis activity (Sheep red blood cells): complete hemolysis activity

— publication PMC10434152, “Effectors of the Type VI Secretion System Have the Potential to Be Modified into Antimicrobial Peptides” (Microbiology Spectrum, 2023)
